Measurements: patent US20080125467A1, “Amino-Containing Compounds Which Inhibit Memapsin 2 Beta-Secretase Activity and Methods of Use Thereof” (priority 2004, published 2008)

Molecular target: T1, memapsin 2 (Cricetulus griseus, UniProt G3IAK4)
T1 construct: endogenous in cells; host or cells: Chinese hamster ovary cells over-expressing human APP695 (London + Swedish)
Experiment: Cellular Aβ IC50 determination (Aβ40 sandwich ELISA)
Assay type: cell-based
Settings: Chinese hamster ovary cells over-expressing human APP695 with London and Swedish mutations, 24 h
Protocol: The potency of compounds against memapsin 2 activity was determined in a cellular assay of Aβ production. […] Chinese hamster ovary cells that over-express human APP695 with the London and Swedish mutations were seeded in multi-well plates at 10% confluency. Compounds were dissolved in DMSO to concentrations near 1 mM, and diluted into culture media to a final concentration near 4 μM (final 0.4% DMSO). Compounds were diluted serially and applied to cells in multi-well plates 48 h after seeding. Incubation was continued in 5% CO2 at 37 degrees C. for 24 h. Aliquots were removed and assayed for Aβ40 content using a sandwich ELISA (BioSource International). Amount of Aβ40 over the range of concentration of compounds, relative to control incubations, were fit to a 4-parameter IC50 model.

T1 sequence (G3IAK4 22-501): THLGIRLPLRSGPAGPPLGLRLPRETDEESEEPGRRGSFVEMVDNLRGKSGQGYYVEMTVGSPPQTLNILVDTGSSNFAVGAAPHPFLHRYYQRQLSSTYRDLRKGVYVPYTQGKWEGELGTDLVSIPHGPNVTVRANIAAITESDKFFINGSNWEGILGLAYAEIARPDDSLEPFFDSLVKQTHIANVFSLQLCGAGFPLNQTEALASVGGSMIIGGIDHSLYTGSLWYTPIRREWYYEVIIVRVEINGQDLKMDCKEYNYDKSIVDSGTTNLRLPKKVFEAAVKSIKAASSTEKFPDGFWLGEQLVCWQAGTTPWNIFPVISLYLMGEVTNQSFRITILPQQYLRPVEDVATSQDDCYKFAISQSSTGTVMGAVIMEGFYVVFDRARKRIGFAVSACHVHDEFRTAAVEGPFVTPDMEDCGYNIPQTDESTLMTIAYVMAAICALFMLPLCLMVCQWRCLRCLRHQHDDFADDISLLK

IC50 | SMILES
< 6 µM | CCC(Cn1nc(C)cc1C)C(=O)NC(CNC(=O)OC(C)(C)C)C(=O)NC(CC(C)C)C(O)CC(C)C(=O)NC(C(=O)NCc1nc(C)cs1)C(C)C (stereo not drawn) [tert-butyl 2-(2-((3,5-dimethyl-1H-pyrazol-1-yl)methyl)butanamido)-3-(5-hydroxy-2,7-dimethyl-8-(3-methyl-1-((4-methylthiazol-2-yl)methylamino)-1-oxobutan-2-ylamino)-8-oxooctan-4-ylamino)-3-oxopropylcarbamate]
< 6 µM | Cc1csc(CC(C)C(=O)NC(CNC(=O)OC(C)(C)C)C(=O)NC(CC(C)C)C(O)CC(C)C(=O)NC(C(=O)NCc2ccncc2)C(C)C)n1 (stereo not drawn) [tert-butyl 3-(5-hydroxy-2,7-dimethyl-8-(3-methyl-1-oxo-1-(pyridin-4-ylmethylamino)butan-2-ylamino)-8-oxooctan-4-ylamino)-2-(2-methyl-3-(4-methylthiazol-2-yl)propanamido)-3-oxopropylcarbamate]
< 6 µM | CCC(CC(O)C(CC(C)C)NC(=O)C(CNC(=O)OC(C)(C)C)NC(=O)C(C)Cc1nc(C)cs1)C(=O)NC(C(=O)NCC(C)C)C(C)C (stereo not drawn) [tert-butyl 3-(5-hydroxy-7-(1-(isobutylamino)-3-methyl-1-oxobutan-2-ylcarbamoyl)-2-methylnonan-4-ylamino)-2-(2-methyl-3-(4-methylthiazol-2-yl)propanamido)-3-oxopropylcarbamate]
< 6 µM | CCC(Cc1nc(C)cs1)C(=O)NC(CNC(=O)OC(C)(C)C)C(=O)NC(CC(C)C)C(O)CC(C)C(=O)NC(C(=O)NCC(C)C)C(C)C (stereo not drawn) [tert-butyl 3-(5-hydroxy-8-(1-(isobutylamino)-3-methyl-1-oxobutan-2-ylamino)-2,7-dimethyl-8-oxooctan-4-ylamino)-2-(2-((4-methylthiazol-2-yl)methyl)butanamido)-3-oxopropylcarbamate]
< 6 µM | Cc1csc(CC(C)C(=O)NC(CNC(=O)OC(C)(C)C)C(=O)NC(CC(C)C)C(O)CC(C)C(=O)NC(C(=O)NCC(C)C)C(C)C)n1 (stereo not drawn) [tert-butyl 3-(5-hydroxy-8-(1-(isobutylamino)-3-methyl-1-oxobutan-2-ylamino)-2,7-dimethyl-8-oxooctan-4-ylamino)-2-(2-methyl-3-(4-methylthiazol-2-yl)propanamido)-3-oxopropylcarbamate]
< 6 µM | Cc1csc(CC(C)C(=O)NC(CNC(=O)OC(C)(C)C)C(=O)NC(CC(C)C)C(O)CC(C)C(=O)NC(C(=O)NN(C)C)C(C)C)n1 (stereo not drawn) [tert-butyl 3-(8-(1-(2,2-dimethylhydrazinyl)-3-methyl-1-oxobutan-2-ylamino)-5-hydroxy-2,7-dimethyl-8-oxooctan-4-ylamino)-2-(2-methyl-3-(4-methylthiazol-2-yl)propanamido)-3-oxopropylcarbamate]
6 to 100 µM | Cc1cc(C)n(CC(C)C(=O)NC(CNC(=O)OC2CCOC2)C(=O)NC(CC(C)C)C(O)CC(C)C(=O)NC(C(=O)NCC(C)C)C(C)C)n1 (stereo not drawn) [tetrahydrofuran-3-yl 2-(3-(3,5-dimethyl-1H-pyrazol-1-yl)-2-methylpropanamido)-3-(5-hydroxy-8-(1-(isobutylamino)-3-methyl-1-oxobutan-2-ylamino)-2,7-dimethyl-8-oxooctan-4-ylamino)-3-oxopropylcarbamate]
< 6 µM | Cc1csc(CC(C)C(=O)NC(CNC(=O)OC2CCOC2)C(=O)NC(CC(C)C)C(O)CC(C)C(=O)NC(C(=O)NCC(C)C)C(C)C)n1 (stereo not drawn) [tetrahydrofuran-3-yl 3-(5-hydroxy-8-(1-(isobutylamino)-3-methyl-1-oxobutan-2-ylamino)-2,7-dimethyl-8-oxooctan-4-ylamino)-2-(2-methyl-3-(4-methylthiazol-2-yl)propanamido)-3-oxopropylcarbamate]

Molecular target: memapsin 2 (Homo sapiens, UniProt P56817)
Sequence (P56817 46-501): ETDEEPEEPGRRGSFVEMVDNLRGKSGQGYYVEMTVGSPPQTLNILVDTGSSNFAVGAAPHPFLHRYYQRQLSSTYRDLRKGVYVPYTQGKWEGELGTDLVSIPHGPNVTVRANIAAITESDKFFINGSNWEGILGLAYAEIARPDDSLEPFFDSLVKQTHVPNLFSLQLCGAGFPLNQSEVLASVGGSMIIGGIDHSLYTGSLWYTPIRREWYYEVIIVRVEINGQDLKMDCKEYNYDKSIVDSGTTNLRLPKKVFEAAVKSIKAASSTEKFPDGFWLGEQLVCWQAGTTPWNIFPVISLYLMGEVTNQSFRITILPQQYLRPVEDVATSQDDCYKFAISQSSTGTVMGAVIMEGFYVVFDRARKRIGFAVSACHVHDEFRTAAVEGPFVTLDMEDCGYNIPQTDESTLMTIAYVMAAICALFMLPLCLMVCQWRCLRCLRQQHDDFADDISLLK
Experiment: Inhibition of memapsin 2 beta-secretase activity toward fluorogenic substrate FS-2
Assay type: biochemical
Settings: pH 4, 37° C., 20 minutes pre-incubation, fluorogenic substrate FS-2, tight-binding model; read-out: M2 Ki

Ki | SMILES
< 0.1 µM | CCC(Cn1nc(C)cc1C)C(=O)NC(CNC(=O)OC(C)(C)C)C(=O)NC(CC(C)C)C(O)CC(C)C(=O)NC(C(=O)NCc1nc(C)cs1)C(C)C (stereo not drawn) [tert-butyl 2-(2-((3,5-dimethyl-1H-pyrazol-1-yl)methyl)butanamido)-3-(5-hydroxy-2,7-dimethyl-8-(3-methyl-1-((4-methylthiazol-2-yl)methylamino)-1-oxobutan-2-ylamino)-8-oxooctan-4-ylamino)-3-oxopropylcarbamate]
